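Grown in 96-well plates, cells were treated for 48 hours with each compound at five concentrations. Insufficient inhibition: endpoint recorded as highest concentration tested. TGI marks complete inhibition of growth.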
How the values were obtained:
Assay in all cases: growth of human tumour cells (NCI), 48 h
[1] = test system: SK-MEL-5 melanoma
[2] = test system: SNB-19 CNS
[3] = test system: HCC-2998 colon
[4] = test system: M14 melanoma
[5] = test system: K-562 leukemia
[6] = test system: CCRF-CEM leukemia
[7] = test system: MOLT-4 leukemia
[8] = test system: NCI-H226 lung
[9] = test system: IGROV1 ovarian
[10] = test system: SK-MEL-28 melanoma
[11] = test system: NCI-H23 lung
[12] = test system: UACC-62 melanoma
[13] = test system: OVCAR-8 ovarian
[14] = test system: COLO 205 colon
[15] = test system: CAKI-1 renal
[16] = test system: OVCAR-4 ovarian
[17] = test system: EKVX NSCLC
[18] = test system: U251 CNS
[19] = test system: ACHN renal
[20] = test system: RPMI-8226 leukemia
[21] = test system: KM12 colon
[22] = test system: HT29 colon
[23] = test system: UACC-257 melanoma
[24] = test system: NCI-H460 lung
[25] = test system: SF-295 CNS
[26] = test system: NCI-H522 lung
[27] = test system: MALME-3M melanoma
[28] = test system: LOX IMVI melanoma
[29] = test system: HCT-15 colon
[30] = test system: LXFL 529 NSCLC
[31] = test system: 786-0 renal
[32] = test system: HOP-62 NSCLC
[33] = test system: OVCAR-5 ovarian
[34] = test system: SN12C renal
[35] = test system: SW-620 colon
[36] = test system: SK-OV-3 ovarian
[37] = test system: SK-MEL-2 melanoma
[38] = test system: DMS 114 small cell lung
[39] = test system: HCT-116 colon
[40] = test system: OVCAR-3 ovarian
[41] = test system: A498 renal
[42] = test system: UO-31 renal
[43] = test system: A549 NSCLC
[44] = test system: RXF 393 renal
[45] = test system: SNB-78 CNS
[46] = test system: SF-268 CNS
[47] = test system: SF-539 CNS
[48] = test system: HOP-92 NSCLC
[49] = test system: SR leukemia
[50] = test system: MDA-N
[51] = test system: MDA-MB-231 breast
[52] = test system: T-47D breast
[53] = test system: HS 578T breast
[54] = test system: BT-549 breast
[55] = test system: NCI/ADR-RES ovarian
[56] = test system: SNB-75 CNS
[57] = test system: PC-3 prostate
[58] = test system: MDA-MB-435
[59] = test system: HL-60(TB) leukemia
[60] = test system: TK-10 renal
[61] = test system: MCF7 breast
[62] = test system: DU-145 prostate

SMILES: O=C(Nc1cccc([N+](=O)[O-])c1)/C(=N\NC(=O)c1ccncc1)c1nc2ccc([N+](=O)[O-])cc2[nH]c1=O
- TGI [1]: > 100 µM
- TGI [2]: > 100 µM
- TGI [3]: 93.8 µM
- TGI [4]: > 100 µM
- TGI [5]: > 100 µM
- TGI [6]: > 100 µM
- TGI [7]: > 100 µM
- TGI [8]: > 100 µM
- TGI [9]: > 100 µM
- TGI [10]: > 100 µM
- TGI [11]: > 100 µM
- TGI [12]: > 100 µM
- TGI [13]: > 100 µM
- TGI [14]: > 100 µM
- TGI [15]: > 100 µM
- TGI [16]: > 100 µM
- TGI [17]: > 100 µM
- TGI [18]: > 100 µM
- TGI [19]: > 100 µM
- TGI [20]: > 100 µM
- TGI [21]: > 100 µM
- TGI [22]: > 100 µM
- TGI [23]: > 100 µM
- TGI [24]: > 100 µM
- TGI [25]: > 100 µM
- TGI [26]: > 100 µM
- TGI [27]: > 100 µM
- TGI [28]: > 100 µM
- TGI [29]: > 100 µM
- TGI [30]: > 100 µM
- TGI [31]: > 100 µM
- TGI [32]: > 100 µM
- TGI [33]: > 100 µM
- TGI [34]: > 100 µM
- TGI [35]: > 100 µM
- TGI [36]: > 100 µM
- TGI [37]: > 100 µM
- TGI [38]: > 100 µM
- TGI [39]: > 100 µM
- TGI [40]: > 100 µM
- TGI [41]: > 100 µM
- TGI [42]: > 100 µM
- TGI [43]: > 100 µM
- TGI [44]: > 100 µM
- TGI [45]: > 100 µM
- TGI [46]: > 100 µM
- TGI [47]: > 100 µM
- TGI [48]: > 100 µM
- TGI [49]: > 100 µM

SMILES: CCOc1ccc(C2Oc3c(cccc3OC)C=C2[N+](=O)[O-])cc1OCC (stereo not drawn)
- TGI [1]: 16.6 µM
- TGI [2]: 45.2 µM
- TGI [3]: 38.3 µM
- TGI [4]: 7.01 µM
- TGI [5]: 5.19 µM
- TGI [6]: 6.88 µM
- TGI [50]: 5.79 µM
- TGI [7]: > 28.4 µM
- TGI [8]: 46.6 µM
- TGI [51]: 10.1 µM
- TGI [52]: > 47.5 µM
- TGI [9]: 11.1 µM
- TGI [10]: 5.74 µM
- TGI [11]: 19.7 µM
- TGI [12]: 23.3 µM
- TGI [53]: > 100 µM
- TGI [13]: 4.75 µM
- TGI [14]: 12.8 µM
- TGI [15]: 17.3 µM
- TGI [16]: 43.9 µM
- TGI [54]: 29.6 µM
- TGI [17]: 40 µM
- TGI [18]: 12.9 µM
- TGI [19]: 14.6 µM
- TGI [20]: 6.49 µM
- TGI [21]: 20.1 µM
- TGI [55]: 17.9 µM
- TGI [22]: 8.11 µM
- TGI [23]: 12.8 µM
- TGI [56]: > 56.5 µM
- TGI [24]: 26.8 µM
- TGI [25]: 32.4 µM
- TGI [26]: 3.7 µM
- TGI [27]: 5.74 µM
- TGI [28]: 5.52 µM
- TGI [57]: 14.9 µM
- TGI [29]: 19 µM
- TGI [58]: 16.7 µM
- TGI [31]: 9.77 µM
- TGI [59]: 7.07 µM
- TGI [32]: 19.2 µM
- TGI [60]: 31.6 µM
- TGI [33]: 23.3 µM
- TGI [34]: > 67.1 µM
- TGI [35]: 4.22 µM
- TGI [36]: 64.9 µM
- TGI [61]: > 100 µM
- TGI [37]: 19.8 µM
- TGI [39]: 3.31 µM
- TGI [40]: 19.6 µM
- TGI [41]: 24 µM
- TGI [42]: 8.8 µM
- TGI [43]: 49.4 µM
- TGI [44]: 11.5 µM
- TGI [62]: 28.6 µM
- TGI [46]: 47.2 µM
- TGI [47]: 5.24 µM
- TGI [48]: 27 µM
- TGI [49]: 5.6 µM
